# Legend:
# [1] = tested on: Aspergillus flavus, ATCC 9170; assay: Preservative effectiveness, USP <51>; assay type: cell-based
# Description: The effectiveness of 9-decenoic acid on Aspergillus and Penecillium which occasionally result in in-can spoilage of paint was determined using the protocol on preservative effectiveness found in the United States Pharmacopeia (USP), 25th Edition, 2002, USP <51>.
# Stock cultures of the fungi Aspergillus flavus, ATCC 9170 and Penecillium verrucosum, ATCC 18381 were cultured onto Sabouraud Dextrose Agar (SDA) and incubated at 25-30° C. for at least 1 week. The spores were washed form the agar surface with sterile saline, filtered through sterile glass wool, enumerated and stored under refrigeration for no longer than thirty days. On the day of the test, the suspension was diluted to approximately 10^8 CFU/ml.
# The 9-decenoic acid was diluted in the same manner as previously described to achieve, 0.25, 0.125, 0.0625, 0.03, 0.015, 0.0078 and 0.0039% and dispensed in 20 ml aliquots in sterile test tubes. For each concentration tested, a 0.1 ml aliquot of each inoculum was added to a final concentration of 10^5 to 10^6 CFU/ml. The tubes were incubated at room temperature and sampled on days 0, 1, 2, 4, 7, 14, 21 and 28.
# At each sample point, 1.0 ml aliquots were withdrawn, serially diluted and plated in triplicate on SDA. The plates were incubated at 25-30° C. for 3-7 days. The colonies were counted and the average CFU/ml was calculated. Controls for purity, viability and sterility were performed as described previously.
# According to the US Pharmacopoeia, a test compound is an effective preservative if the concentrations of viable fungi remain at or below the initial concentrations during the first fourteen days and after 28 days. According to this definition, 9-decenoic acid is an effective preservative against Aspergillus flavus and Penecillium verrucosum at concentrations as low at 0.078%. […] For A. flavus, 9-decenoic acid was fungicidal at 0.015% after 21 days and at day 0 at 0.03%.
# [2] = tested on: Aureobasidium pullulans (ATCC 12536); assay: MIC on Potato Dextrose Agar surface; assay type: cell-based; details: PDA agar, 25-30° C., least concentration that completely inhibited growth
# Description: The efficacy of antimicrobial compositions in accordance with aspects of the invention against the following organisms was determined as follows. The following organisms were incubated in the presence of varying concentrations of 9-decenoic acid (9-DA) on an agar surface: Aspergillus parasiticus (ATCC 56857), Trichoderma virens (ATCC 9645), Aureobasidium pullulans (ATCC 12536), Aspergillus flavus (ATCC 96045), Cladosporium cladosporiodes (ATCC 16022), Aspergillus flavus (ATCC 5917), Aspergillus oryzae (ATCC 10124), Aspergillus parasiticus (ATCC 13539), Ulocladium atrum (ATCC 52426), Candida albicans (ATCC 11651), Alternaria alternata (ATCC 52170), Stachybotrys chartarum (ATCC 16026), Aspergillus niger (ATCC 11414).
# Fungal spores were hydrated in 0.1% Tween 80 and then plated onto Potato Dextrose Agar (PDA) (Difco # 213400; Becton, Dickinson and Company, Sparks, Md.) and incubated at 25-30° C. for six (6) days. The spores were washed from the surface with 5 ml of 0.1% Tween 80 and enumerated.
# PDA plates were prepared according to the manufacturer's instructions through sterilization. The agar was tempered to approximately 50° C. and was filter sterilized. […]
# The agar plates were inoculated with the spore solution to achieve 10^2 spores/plate. […] The percent coverage of growth on the agar surface was recorded at each sample point.
smiles,measurement,setting,value
C=CCCCCCCCC(=O)O [9-decenoic acid],Log reduction of organisms after exposure,"[1]; 0.0078%, exposure 0 days",0.2 log
same,Log reduction of organisms after exposure,"[1]; 0.0078%, exposure 1 day",0.3 log
same,Log reduction of organisms after exposure,"[1]; 0.0078%, exposure 2 days",0.2 log
same,Log reduction of organisms after exposure,"[1]; 0.0078%, exposure 4 days",0.4 log
same,Log reduction of organisms after exposure,"[1]; 0.0078%, exposure 7 days",0.4 log
same,Log reduction of organisms after exposure,"[1]; 0.0078%, exposure 14 days",0.4 log
same,Log reduction of organisms after exposure,"[1]; 0.0078%, exposure 21 days",0.8 log
same,Log reduction of organisms after exposure,"[1]; 0.0078%, exposure 28 days",0.8 log
same,Log reduction of organisms after exposure,"[1]; 0.015%, exposure 0 days",1.2 log
same,Log reduction of organisms after exposure,"[1]; 0.015%, exposure 1 day",2.9 log
same,Log reduction of organisms after exposure,"[1]; 0.015%, exposure 2 days",3.1 log
same,Log reduction of organisms after exposure,"[1]; 0.015%, exposure 4 days",3.9 log
same,Log reduction of organisms after exposure,"[1]; 0.015%, exposure 7 days",3.9 log
same,Log reduction of organisms after exposure,"[1]; 0.015%, exposure 14 days",4.8 log
same,Log reduction of organisms after exposure,"[1]; 0.015%, exposure 21 days",5.1 log
same,Log reduction of organisms after exposure,"[1]; 0.015%, exposure 28 days",4.8 log
same,Log reduction of organisms after exposure,"[1]; 0.03%, exposure 0 days",5.1 log
same,Log reduction of organisms after exposure,"[1]; 0.03%, exposure 1 day",5.1 log
same,Log reduction of organisms after exposure,"[1]; 0.03%, exposure 2 days",5.1 log
same,Log reduction of organisms after exposure,"[1]; 0.03%, exposure 4 days",5.1 log
same,Log reduction of organisms after exposure,"[1]; 0.03%, exposure 7 days",5.1 log
same,Log reduction of organisms after exposure,"[1]; 0.03%, exposure 14 days",5.1 log
same,Log reduction of organisms after exposure,"[1]; 0.03%, exposure 21 days",5.1 log
same,Log reduction of organisms after exposure,"[1]; 0.03%, exposure 28 days",5.1 log
same,Log reduction of organisms after exposure,"[1]; 0.0625%, exposure 0 days",5.1 log
same,Log reduction of organisms after exposure,"[1]; 0.0625%, exposure 1 day",5.1 log
same,Log reduction of organisms after exposure,"[1]; 0.0625%, exposure 2 days",5.1 log
same,Log reduction of organisms after exposure,"[1]; 0.0625%, exposure 4 days",5.1 log
same,Log reduction of organisms after exposure,"[1]; 0.0625%, exposure 7 days",5.1 log
same,Log reduction of organisms after exposure,"[1]; 0.0625%, exposure 14 days",5.1 log
same,Log reduction of organisms after exposure,"[1]; 0.0625%, exposure 21 days",5.1 log
same,Log reduction of organisms after exposure,"[1]; 0.0625%, exposure 28 days",5.1 log
same,time after which fungicidal,[1]; at 0.015%,21 days
same,time after which fungicidal,[1]; at 0.03%,0 days
same,MIC,[2],0.01%
